Measurements as given in patent US8435978B2, “Substituted sulfonamide compounds” (Gruenenthal GmbH, priority 2006, dated 2013).

How the values were obtained:
human B1R receptor = target: T1, human B1R receptor (Homo sapiens, UniProt P46663); test: Functional study on the bradykinin receptor 1 (B1R), FLIPR Ca2+ assay, hB1R cells; type: cell-based; conditions: agonist Lys-Des-Arg9-bradykinin 0.5 nM, % inhibition compared with the maximum achievable inhibition; for inhibition at 10 µM: CHO-K1, test substance 10 μM, read-out: B1R Antagonism, human [10 μM] % Inhibition
T1 construct: host or cells: CHO K1 cells (Chinese hamster ovary), stably transfected
T1 sequence (P46663 1-353): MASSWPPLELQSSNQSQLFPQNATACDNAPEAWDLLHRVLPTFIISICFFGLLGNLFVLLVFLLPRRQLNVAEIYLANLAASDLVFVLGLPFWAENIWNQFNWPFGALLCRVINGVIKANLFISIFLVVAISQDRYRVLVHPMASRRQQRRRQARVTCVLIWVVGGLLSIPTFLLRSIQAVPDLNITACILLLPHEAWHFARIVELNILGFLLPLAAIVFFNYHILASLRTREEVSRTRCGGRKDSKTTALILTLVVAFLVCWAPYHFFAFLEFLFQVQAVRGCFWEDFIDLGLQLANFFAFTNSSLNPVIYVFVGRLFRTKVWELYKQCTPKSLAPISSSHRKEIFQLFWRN
Description: (§1) The agonistic or antagonistic action of substances can be quantified on the bradykinin receptor 1 (B1R) of the species human and rat with ectopically expressing cell lines (CHO K1 cells) and with the aid of a Ca^2+-sensitive dye (Fluo-4) using a fluorescent imaging plate reader (FLIPR). The indication in % activation is based on the Ca^2+ signal after addition of Lys-Des-Arg^9-bradykinin (0.5 nM) or Des-Arg^9-bradykinin (100 nM). Antagonists result in a suppression of the Ca^2+ influx following administration of the agonist. The % inhibition in comparison with the maximum achievable inhibition is indicated.
(§2) The agonistic or antagonistic action of substances can be determined on the bradykinin receptor 1 (B1R) of the species human and rat using the following assay. According to this assay, the Ca^2+ influx through the channel is quantified with the aid of a Ca^2+-sensitive dye (type Fluo-4, Molecular Probes Europe BV, Leiden, Netherlands) using a Fluorescent Imaging Plate Reader (FLIPR, Molecular Devices, Sunnyvale, USA).
(§3) Chinese hamster ovary cells (CHO K1 cells) which have been stably transfected with the human B1R gene (hB1R cells, Euroscreen s.a., Gosselies, Belgium) or with the B1R gene of the rat (rB1R cells, Axxam, Milan, Italy) are used. For functional studies, the cells are plated out on black 96-well plates having a clear base (BD Biosciences, Heidelberg, Germany) in a density of 20,000-25,000 cells/well. The cells are incubated overnight at 37° C. and with 5% CO2 in culture medium (hB1R cells: Nutrient Mixture Ham's F12, Gibco Invitrogen GmbH, Karlsruhe, Germany; rB1R cells: D-MEM/F12, Gibco Invitrogen GmbH, Karlsruhe, Germany), with 10 vol. % FBS (fetal bovine serum, Gibco Invitrogen GmbH, Karlsruhe, Germany). On the following day, the cells are loaded for 60 minutes at 37° C. with 2.13 μM Fluo-4 (Molecular Probes Europe BV, Leiden, Netherlands) in HBSS buffer (Hank's buffered saline solution, Gibco Invitrogen GmbH, Karlsruhe, Germany) […] (Sigma-Aldrich, Taufkirchen, Germany) and 10 mM HEPES (Sigma-Aldrich, Taufkirchen, Germany). The plates are then washed twice with HBSS buffer, and HBSS buffer additionally containing 0.1% BSA (bovine serum albumin; Sigma-Aldrich, Taufkirchen, Germany), 5.6 mM glucose and 0.05% gelatin (Merck KGaA, Darmstadt, Germany) is added to the plates. After incubation for a further 20 minutes at room temperature, the plates are inserted into the FLIPR for Ca^2+ measurement. The Ca^2+-dependent fluorescence is measured before and after the addition of substances (λex=488 nm, λem=540 nm). Quantification is carried out by measuring the highest fluorescence intensity (FC, fluorescence counts) over time.
(§4) The FLIPR protocol consists of 2 substance additions. Test substances (10 μM) are first pipetted onto the cells and the Ca^2+ influx is compared with the control (hB1R: Lys-Des-Arg^9-bradykinin 0.5 nM; rB1R: Des-Arg^9-bradykinin 100 nM). This gives the activation in %, based on the Ca^2+ signal after addition of Lys-Des-Arg^9-bradykinin (0.5 nM) or Des-Arg^9-bradykinin (100 nM).
(§5) After 10 minutes' incubation, 0.5 nM Lys-Des-Arg^9-bradykinin (hB1R) or 100 nM Des-Arg^9-bradykinin (rB1R) are applied, and the influx of Ca^2+ is likewise determined. Antagonists lead to suppression of the Ca^2+ influx. The % inhibition compared with the maximum achievable inhibition is calculated.

B1R receptor of the rat = target: T2, B1R receptor of the rat (Rattus norvegicus, UniProt P97583); test: Functional study on the bradykinin receptor 1 (B1R), FLIPR Ca2+ assay, rB1R cells; type: cell-based; conditions: agonist Des-Arg9-bradykinin 100 nM, % inhibition compared with the maximum achievable inhibition; for inhibition at 10 µM: CHO-K1, test substance 10 μM, read-out: B1R Antagonism, rat [10 μM] % Inhibition
T2 construct: host or cells: CHO K1 cells (Chinese hamster ovary), stably transfected
T2 sequence (P97583 1-337): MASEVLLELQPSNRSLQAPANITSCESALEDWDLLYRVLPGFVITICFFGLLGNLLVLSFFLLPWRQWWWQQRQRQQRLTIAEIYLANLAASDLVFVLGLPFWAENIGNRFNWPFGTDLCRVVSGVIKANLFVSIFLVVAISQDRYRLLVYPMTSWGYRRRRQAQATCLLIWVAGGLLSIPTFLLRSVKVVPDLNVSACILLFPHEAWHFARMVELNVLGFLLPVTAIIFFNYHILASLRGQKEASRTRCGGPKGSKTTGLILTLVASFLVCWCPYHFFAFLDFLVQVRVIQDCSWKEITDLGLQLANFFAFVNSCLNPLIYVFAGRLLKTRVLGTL
Description: as §1, §2, §3, §4, §5

Compound: O=C(COCC1CCCCN1S(=O)(=O)c1c(Cl)cc(Cl)cc1Cl)NCc1ccc(CN2CCOCC2)cc1 (stereo not shown) [Example 30, N-(4-morpholin-4-ylmethyl-benzyl)-2-[1-(2,4,6-trichloro-phenylsulfonyl)-piperidin-2-ylmethoxy]-acetamide]
- inhibition at 10 µM (human B1R receptor): 84%
- inhibition at 10 µM (B1R receptor of the rat): 108%

Compound: Cc1cc(C)c(S(=O)(=O)N2CCCCC2COCC(=O)N2CCCN(Cc3ccccc3)CC2)c(C)c1 (stereo not shown) [Example 31, 1-(4-benzyl-[1,4]diazepan-1-yl)-2-[1-(2,4,6-trimethyl-phenylsulfonyl)-piperidin-2-ylmethoxy]-ethanone]
- inhibition at 10 µM (human B1R receptor): 83.8%
- inhibition at 10 µM (B1R receptor of the rat): 94.7%

Compound: CN1CCC(N2CCN(C(=O)COCC3CCCCN3S(=O)(=O)c3ccc(Cl)c(Cl)c3)CC2)CC1 (stereo not shown) [Example 32, 2-[1-(3,4-dichloro-phenylsulfonyl)-piperidin-2-ylmethoxy]-1-[4-(1-methyl-piperidin-4-yl)-piperazin-1-yl]-ethanone]
- inhibition at 10 µM (human B1R receptor): 83.3%
- inhibition at 10 µM (B1R receptor of the rat): 63.3%

Compound: Cc1cc(C)c(S(=O)(=O)N2Cc3ccccc3CC2COCC(=O)NCc2cccc(N3CCN(C)CC3)c2)c(C)c1 (stereo not shown) [Example 33, N-[3-(4-methyl-piperazin-1-yl)-benzyl]-2-[2-(2,4,6-trimethyl-phenylsulfonyl)-1,2,3,4-tetrahydro-isoquinolin-3-ylmethoxy]-acetamide]
- inhibition at 10 µM (human B1R receptor): 82.7%
- inhibition at 10 µM (B1R receptor of the rat): 47.7%

Compound: O=C(COCC1CCCCN1S(=O)(=O)c1cccc2ccccc12)NCC1CCCN(Cc2ccccc2)C1 (stereo not shown) [Example 34, N-(1-benzyl-piperidin-3-ylmethyl)-2-[1-(naphthyl-1-sulfonyl)-piperidin-2-ylmethoxy]-acetamide]
- B1R Antagonism, human [10 μM] % Inhibition (human B1R receptor; test substance 10 μM, hB1R CHO K1 cells): 79.9%
- B1R Antagonism, rat [10 μM] % Inhibition (B1R receptor of the rat; test substance 10 μM, rB1R CHO K1 cells): 39.48%

Compound: COc1cc(C)c(S(=O)(=O)N2CCCC2COCC(=O)NCc2ccc(CN(C)C)cc2)c(C)c1 (stereo not shown) [Example 35, N-(4-dimethylaminomethyl-benzyl)-2-[1-(4-methoxy-2,6-dimethyl-phenylsulfonyl)-pyrrolidin-2-ylmethoxy]-acetamide]
- inhibition at 10 µM (human B1R receptor): 79.7%
- inhibition at 10 µM (B1R receptor of the rat): 99%

Compound: O=C(COCC1CCCN1S(=O)(=O)c1ccc(Cl)c(Cl)c1)N1CCC(CCN2CCCCC2)CC1 (stereo not shown) [Example 36, 2-((1-(3,4-dichlorophenylsulfonyl)pyrrolidin-2-yl)methoxy)-1-(4-(2-(piperidin-1-yl)-ethyl)piperidin-1-yl)ethanone]
- inhibition at 10 µM (human B1R receptor): 79.4%
- inhibition at 10 µM (B1R receptor of the rat): 45.7%

Compound: CN(C)Cc1ccc(CNC(=O)COCC2CCCCN2S(=O)(=O)c2c(Cl)cc(Cl)cc2Cl)cc1 (stereo not shown) [Example 37, N-(4-dimethylaminomethyl-benzyl)-2-[1-(2,4,6-trichloro-phenylsulfonyl)-piperidin-2-ylmethoxy]-acetamide]
- inhibition at 10 µM (human B1R receptor): 78.2%
- inhibition at 10 µM (B1R receptor of the rat): 103%

Compound: O=C(COCC1Cc2ccccc2CN1S(=O)(=O)c1ccc(Cl)c(Cl)c1)N1CCC(N2CCCC2)CC1 (stereo not shown) [Example 38, 2-((2-(3,4-dichlorophenylsulfonyl)-1,2,3,4-tetrahydroisoquinolin-3-yl)methoxy)-1-(4-(pyrrolidin-1-yl)piperidin-1-yl)ethanone]
- inhibition at 10 µM (human B1R receptor): 75%
- inhibition at 10 µM (B1R receptor of the rat): 65.4%

Compound: O=C(COCC1CCCCN1S(=O)(=O)c1ccc(Cl)c(Cl)c1)N1CCN(Cc2ccc3c(c2)OCO3)CC1 (stereo not shown) [Example 39, 1-(4-benzo[1,3]dioxol-5-ylmethyl-piperazin-1-yl)-2-[1-(3,4-dichloro-phenylsulfonyl)-piperidin-2-ylmethoxy]-ethanone]
- inhibition at 10 µM (human B1R receptor): 73.2%
- inhibition at 10 µM (B1R receptor of the rat): 0%

Compound: COc1cc(C)c(S(=O)(=O)N2CCCC2COCC(=O)NCc2ccc(CN3CCN(C)CC3)cc2)c(C)c1 (stereo not shown) [Example 40, 2-[1-(4-methoxy-2,6-dimethyl-phenylsulfonyl)-pyrrolidin-2-ylmethoxy]-N-[4-(4-methyl-piperazin-1-ylmethyl)-benzyl]-acetamide]
- inhibition at 10 µM (human B1R receptor): 72.7%
- inhibition at 10 µM (B1R receptor of the rat): 88.7%

Compound: Cc1cc(C)c(S(=O)(=O)N2Cc3ccccc3CC2COCC(=O)NCC2CCCN(Cc3ccccc3)C2)c(C)c1 (stereo not shown) [Example 41, N-(1-benzyl-piperidin-3-ylmethyl)-2-[2-(2,4,6-trimethyl-phenylsulfonyl)-1,2,3,4-tetrahydro-isoquinolin-3-ylmethoxy]-acetamide]
- inhibition at 10 µM (human B1R receptor): 72.6%
- inhibition at 10 µM (B1R receptor of the rat): 16.4%

Compound: O=C(COCC1CCCCN1S(=O)(=O)c1ccc(Cl)c(Cl)c1)N1CCN(CCN2CCCCC2)CC1 (stereo not shown) [Example 42, 2-((1-(3,4-dichlorophenylsulfonyl)piperidin-2-yl)methoxy)-1-(4-(2-(piperidin-1-yl)-ethyl)piperazin-1-yl)ethanone]
- inhibition at 10 µM (human B1R receptor): 70.6%
- inhibition at 10 µM (B1R receptor of the rat): 57.9%

Compound: CCN(CC)CCN(CCN(CC)CC)C(=O)COCC1Cc2ccccc2CN1S(=O)(=O)c1ccc(Cl)c(Cl)c1 (stereo not shown) [Example 43, 2-[2-(3,4-dichloro-phenylsulfonyl)-1,2,3,4-tetrahydro-isoquinolin-3-ylmethoxy]-N,N-bis-(2-diethylamino-ethyl)-acetamide]
- inhibition at 10 µM (human B1R receptor): 69.9%
- inhibition at 10 µM (B1R receptor of the rat): 24.2%

Compound: O=C(COCC1CCCN1S(=O)(=O)c1ccc(Cl)c(Cl)c1)N1CCN(Cc2ccc3c(c2)OCO3)CC1 (stereo not shown) [Example 44, 1-(4-benzo[1,3]dioxol-5-ylmethyl-piperazin-1-yl)-2-[1-(3,4-dichloro-phenylsulfonyl)-pyrrolidin-2-ylmethoxy]-ethanone]
- inhibition at 10 µM (human B1R receptor): 69.6%
- inhibition at 10 µM (B1R receptor of the rat): 0%

Compound: CN1CCN(Cc2ccc(CNC(=O)COCC3CCCN3S(=O)(=O)c3c(Cl)cc(Cl)cc3Cl)cc2)CC1 (stereo not shown) [Example 45, N-[4-(4-methyl-piperazin-1-ylmethyl)-benzyl]-2-[1-(2,4,6-trichloro-phenylsulfonyl)-pyrrolidin-2-ylmethoxy]-acetamide]
- inhibition at 10 µM (human B1R receptor): 69.1%
- inhibition at 10 µM (B1R receptor of the rat): 92.4%

Compound: COCCN1CCN(C(=O)COCC2CCCCN2S(=O)(=O)c2ccc(Cl)c(Cl)c2)CC1 (stereo not shown) [Example 46, 2-[1-(3,4-dichloro-phenylsulfonyl)-piperidin-2-ylmethoxy]-1-[4-(2-methoxy-ethyl)-piperazin-1-yl]-ethanone]
- inhibition at 10 µM (human B1R receptor): 68.2%
- inhibition at 10 µM (B1R receptor of the rat): 0%
